SMILES strings stand for the structures.

As to `COc1cc2c3c4c(c(-c5ccccc5)cc3n(C)c2cc1CCCO)C(=O)NC4=O`, the melting point (commonly the temperature of the solid-liquid transition) was 105 to 110 °C.

For the compound `O=C(NC1CCCC1)n1cc(F)c(=O)[nH]c1=O`, the melting point amounted to 137 °C.

As for `COc1ccccc1NC(=O)Nc1nc(Nc2ccccc2-c2ccccc2)nc(N(CCC(=O)O)Cc2ccc(C)cc2)n1`, the melting point was 102 °C.

For `C=CCOC(=O)Cn1c(=O)n(S(=O)(=O)c2ccc(Cl)cc2)c(=O)c2ccccc21`, the melting point fell in the range of 164 to 166 °C.

The compound `CC(C)Cc1cc(C(=O)NCCc2ccncc2)ccc1OCc1ccc(F)cc1` displayed a melting point of 112 °C.

`O=C(O)c1cc(F)c(C(F)(F)F)cc1[N+](=O)[O-]` displayed a melting point of 142 to 145 °C.

On to `C[Si](C)(C)CCc1nnc(N)nc1N`, for which the melting point was in the range of 203 to 204 °C.

`Cc1ccc(N(C)S(=O)(=O)c2cccs2)c2[nH]c(-c3ncc(CCl)s3)cc12` came in with a melting point of 194 to 195 °C.

The compound `CCOC(=O)c1nn(Cc2ccc(OC)c(OC)c2)c2cc(OC)c(OC)cc12` returned a melting point of 138 to 141 °C.

Compound `CCCCCc1cc(C(=O)O)c(C)o1` registered a melting point of 47 to 48 °C.

In the case of `CCn1nc(Cc2ccc(NC(=O)/C=C/c3cnn(C)c3-c3ccc(F)cc3)cc2)oc1=O`, the melting point was in the range of 149 to 150 °C.

As for `CCOC(=O)Cn1nnnc1Cl`, the melting point was 57 to 60 °C.

As for `Cc1cc(C)c(C(O)c2ccc(C(C)C)cc2)c(O)c1` (stereo unspecified), the melting point fell in the range of 103 to 104 °C.

As to `CCOC(=O)C1Oc2ccc(Cl)cc2C(C)(c2ccccc2)O1` (stereo unspecified), the melting point is 92 °C.

In turn, `O=C(O)Cc1cc(C(=O)c2c(F)cccc2F)ccc1O` returned a melting point of 120 °C.

Compound `COc1cc2c(Nc3ccc(Oc4cccnc4)cc3)c(C#N)cnc2cc1OCC1CCN(C)CC1` showed a melting point of 182 to 184 °C.

Take `CCCCc1nc2ccn(CC#N)c(=O)c2n1Cc1ccc(-c2ccccc2C#N)cc1`: the melting point stood at 64 °C.

For the compound `CCOC(=O)c1cn(C2CC2)c2c(F)c(F)c(F)c(NCc3ccccc3)c2c1=O`, the melting point is 134 to 135 °C.

Regarding `NS(=O)(=O)c1cc2ccc(O)cc2[nH]1`, the melting point is 194 to 195 °C.

In the case of `Cc1cc(F)ccc1OC1CC(C#CC(C)N(O)C(N)=O)C1` (single isomer, unassigned; (+)), the melting point was 139 to 140 °C.

Turning to `O=[N+]([O-])c1cc2c(Nc3ccc(F)c(Cl)c3)ncnc2cc1OC1CCC1`, the melting point is 235 °C.

Compound `NNC(=O)c1cnc2n(c1=O)CCCCC2` displayed a melting point of 184 to 186 °C.

With `COCCc1sc2ncnc(N)c2c1-c1ccc(N(C(N)=O)c2ccccc2C)cc1`, the melting point fell in the range of 217 to 219 °C.

The compound `COC(=O)Nc1ccc(CN2OCC(C)(C)C2=O)c(Cl)c1` registered a melting point of 165 to 167 °C.

The compound `O=C(O)CCc1ccc(OCc2cccc(-c3cncnc3)c2)cc1` returned a melting point of 166 to 167 °C.

Consider `COc1ccc(CNC(=O)c2c(C)c([N+](=O)[O-])cc3nc(OC)c(OC)nc23)cc1`, for which the melting point was 187 to 189 °C.

In turn, `CCC(=O)NNC(=O)c1ccncc1` yielded a melting point of 131 °C.

On to `OC1(c2cccc(Cl)c2)CCN(CCCc2nnc3n2CCCCC3)CC1`, for which the melting point fell in the range of 146 to 148 °C.

In turn, `COc1cccc(CSCCNC(=O)c2c(Cl)cccc2Cl)c1OC` had a melting point of 108 to 110 °C.

`O=Cc1c(-c2ccccc2Cl)ccc2c1OCO2`: the melting point was in the range of 84 to 86 °C.

Regarding `CN(C)S(=O)(=O)Nc1cccc(-c2cccc(-c3nc(-c4ccc(C(F)(F)F)cc4)cc(C(F)(F)F)n3)c2)c1`, the melting point came out at 113 °C.

The compound `O=Cc1ccc(OCc2ccccc2)c(OCc2ccccc2)c1OCc1ccccc1` showed a melting point of 73 to 74 °C.

`CONS(=O)(=O)c1cc(Cl)c(Cl)cc1Cl`: the melting point was 163 to 166 °C.

Take `O=c1ccn(-c2cc(Cl)ccc2Cl)[nH]1`: the melting point was in the range of 201 to 202 °C.

`Cc1cc(C(=O)NC2=NCCC2(c2ccccc2)c2ccccc2)[nH]n1` had a melting point of 213 to 215 °C.

The compound `CCCCCCCCCCCCCCCCCCCCCC(=O)NN` yielded a melting point of 117 °C.

Take `Cc1nc(O)sc1C(=O)CBr`: the melting point was found to be 162 °C.

As for `CCCCCc1ccc2cc(Nc3ccc(O)cc3)ccc2c1`, the melting point lay within 134 to 135 °C.

With `ClCCCCn1c2c(c3ccccc31)CCSc1ccccc1-2`, the melting point was determined as 75 °C.

Turning to `CN1CCN(c2ccnc3c(NC(=O)c4c(Cl)cccc4Cl)cc(F)cc23)C1=O`, the melting point was 268 to 272 °C.

In turn, `CCCCCCCCCCCCCCCCCC(=O)CC(=O)OC` came in with a melting point of 52 to 54 °C.

`CCOC(=O)C1=C(C)NN=C(C(=O)OC)C1c1ccccc1C` (stereo unspecified) showed a melting point of 165 °C.

Compound `CCCCCCCCc1ccc(C(=S)c2ccc(OCCCC)cc2O)cc1` registered a melting point of 77 to 79 °C.

In turn, `COC(=O)Nc1nc2cc(SCC3CC3(Cl)Cl)ccc2[nH]1` (stereo unspecified) had a melting point of 211 to 213 °C.

Turning to `CC(C)C(=O)Nc1cccc(-c2ccnc3c(C(=O)c4cccs4)cnn23)c1`, the melting point lay within 180 to 181 °C.

Take `CCN(CC)Cc1cc(NC(C)=O)c2c(c1O)CCCC2`: the melting point is 157 to 159 °C.

The compound `COc1ccc(CSCC(C(=O)O)C(F)(F)F)cc1` (stereo unspecified) gave a melting point of 72 to 74 °C.

As to `c1ccc(-c2c[nH]c([C@@H](Cc3c[nH]c4ccccc34)Nc3ncccn3)n2)cc1`, the melting point lay within 138 to 140 °C.

Regarding `Cc1nc2c(N)nc3ccccc3c2n1CCC1(O)CCCCC1`, the melting point was > 252 °C.

Compound `CCCCCC(CC(=O)NO)C(=O)NC(C(=O)N1CCCC1CO)C(C)C` (stereo unspecified) returned a melting point of 148 to 149 °C.

On to `Cc1ccc(-c2ccc(C(=O)Nc3ccc4nc(CN5C(C)(C)CCCC5(C)C)ccc4c3)cc2)cc1`, for which the melting point is 242 to 243 °C.

On to `CCN(Cc1ccccc1)C(=O)Cc1c(-c2ccc(OC)cc2)nc2cc(C)ccn12`, for which the melting point is 175 to 178 °C.

For the compound `CCOC(=O)C1(O)C=CN=c2ccc3c(c21)NCN=3` (stereo unspecified), the melting point was 315 to 316 °C.

Regarding `COc1cc(-c2nccn2N=Cc2ccc(N(C)C)cc2)cc(OC)c1OC`, the melting point turned out to be 232 °C.

Turning to `CC(C)(C)c1cc(C=O)cc(Cl)c1O`, the melting point turned out to be 123 °C.

On to `O=C1NC(O)(C(Cl)(Cl)Cl)NC1=O`, for which the melting point came to 245 °C.

Regarding `O=C(CCNc1c(C(=O)O)[nH]c2cc(Cl)ccc12)c1ccc(F)cc1`, the melting point is 248 to 250 °C.

Compound `Cc1ccc(C)c(C(C)Sc2cc(C)c3ccccc3n2)c1` (stereo unspecified) yielded a melting point of 84 to 85 °C.

The compound `O=[N+]([O-])c1cccc(Oc2ccc(Oc3cccc([N+](=O)[O-])c3)cc2)c1` returned a melting point of 158 to 160 °C.

`COc1ccc(C(=O)c2ccc(Oc3ccccc3)cc2)cc1` showed a melting point of 118 to 119 °C.

The compound `COC(=O)COc1ccc(OCC(=O)OC)cc1` returned a melting point of 96 to 98 °C.

As for `COCc1ncc(OC)c(=O)[nH]1`, the melting point was determined as 61 °C.

`CC1CC(=O)NN=C1c1ccc2c(c1)nc(C1CC1)n2Cc1ccc(-c2ccccc2-c2nnn[nH]2)cc1` (stereo unspecified) registered a melting point of 265 °C.

`CC(=O)Oc1cccc2c1C(=O)c1c(OC(C)=O)cc(C(=O)NOCc3ccccc3)cc1C2=O` yielded a melting point of 192 to 194 °C.

The compound `CN(C)C(=O)Nc1ccc(OCC(=O)c2ccccc2)c(Cl)c1` yielded a melting point of 148 to 150 °C.

`CC(C)(Oc1ccc(CCC(=O)c2ccc(-c3ccc(C(F)(F)F)cc3)s2)cc1F)C(=O)O` displayed a melting point of 150 to 151 °C.

With `NS(=O)(=O)Oc1cccc(F)c1`, the melting point fell in the range of 53 to 55 °C.

The compound `COC(=O)c1cccc(-c2ccccc2[N+](=O)[O-])c1` displayed a melting point of 88 to 90 °C.

In turn, `CCOC(=O)c1ncc2[nH]c3ccc(CC)cc3c2c1C` came in with a melting point of 158 to 163 °C.

The compound `COCCOc1cc(C)c(O)c2ccccc12` gave a melting point of 100 to 101 °C.

On to `CC(C(=O)O)c1ccc2c(c1)C(=O)Cc1ccc(Cl)cc1S2` (stereo unspecified), for which the melting point lay in the range of 142 to 143 °C.

As to `CCCCCCCCCCCCCCCCCCNC(=O)OCC(CO)NC(=O)OC` (stereo unspecified), the melting point is 84 to 85 °C.

`O=C(Nc1ccc2[nH]c(=O)sc2c1)C(=O)N1CCC(Cc2ccccc2)CC1`: the melting point is 201 to 203 °C.

`COC(=O)C(C)(OCc1ccc2cc(OC)ccc2c1)C(F)(F)F` (stereo unspecified) registered a melting point of 60 to 62 °C.

Consider `COC(=S)C(C)=CNc1ccc(OC)c(Cl)c1`, for which the melting point was 110 to 112 °C.

With `CCCC(=O)Nc1cccc(C2(c3cc(C(=O)CC)n(CC)c3)N=C(N)N(C)C2=O)c1` (stereo unspecified), the melting point lay within 201 to 205 °C.

Regarding `O=C(O)C(CCCN1C(=O)c2ccccc2S1(=O)=O)NS(=O)(=O)c1ccc(-c2ccc(Cl)cc2)cc1` (stereo unspecified), the melting point lay within 177 to 179 °C.

As for `COc1cc2cc3[nH]cc(C#N)c(=O)c3cc2cc1OC`, the melting point is > 265 °C.

`O=c1[nH]c(=O)c2c(N3CCCCC3)cccc2[nH]1`: the melting point was > 280 °C.

Compound `COc1cccc(CCN2C(=O)c3c(F)ccc(F)c3C2(O)c2ccccc2)c1` (stereo unspecified) yielded a melting point of 141 °C.

Compound `O=C1C2=C(CCCC2)C(=O)N1c1c(F)cc(Cl)c2c1CC(CO)O2` (stereo unspecified) registered a melting point of 193 to 195 °C.

In turn, `O=C(NNc1nc(C(F)(F)F)nc(-c2ccncc2)c1-c1ccc(F)cc1)C(F)(F)F` registered a melting point of 240 to 242 °C.

In the case of `CC(C)(COc1ccc2nccn2n1)CS(N)(=O)=O`, the melting point lay in the range of 165 to 167 °C.

Consider `CC(CN1CC=C(c2cccs2)CC1)N(C(=O)C1CC=CCC1)c1ccccn1` (stereo unspecified), for which the melting point was in the range of 92 to 96 °C.

As to `OCCOc1cccc2c1OCO2`, the melting point lay within 56 to 57 °C.

In turn, `CC(=O)CS(=O)(=O)c1cccc2ccccc12` returned a melting point of 65 °C.

Regarding `CC(=O)Nc1cccc2c1CN(c1ccc3ccn(C)c3c1)C2=O`, the melting point was 180 to 184 °C.

The compound `CN(CCOCCO)S(=O)(=O)c1ccc(NC=C2C(=O)Nc3ccc4ncsc4c32)cc1` gave a melting point of 165 °C.

`Cn1cc(CN2CCC[C@H]2CO)c2ccccc21` returned a melting point of 46 to 48 °C.

Turning to `COc1cc(C=CC(=O)c2ccc(I)cc2O)cc(OC)c1OCc1ccccc1`, the melting point fell in the range of 124 to 125 °C.

`CCOC1=NS(=O)(=O)N=C1c1ccccc1` came in with a melting point of 204 to 206 °C.

(Values after a melting point compilation (Tetko et al.; mined from patent text by program, amines drawn as free bases though some values may be those of a salt).)
